Measured values: ChEMBL document CHEMBL1201862, “PubChem BioAssay data set” (2004)
The source made the active and inactive calls.

Legend:
[1] = target: Genome polyprotein (dengue virus type 2, UniProt P29990); assay: Dengue-2 NS5 methyltransferase inhibitors, primary screen, biochemical, confirmation dose response (AID 588689); assay type: functional
[2] = target: Tyrosyl-DNA phosphodiesterase 2 (Homo sapiens, UniProt O95551); assay: human TDP2 enzyme inhibitors, dose response, biochemical, epi absorbance, IC50 (AID 743297)
[3] = target: T1, Apoptotic protease-activating factor 1 (Homo sapiens, UniProt O14727); assay type: functional
T1 sequence (O14727 whole entry): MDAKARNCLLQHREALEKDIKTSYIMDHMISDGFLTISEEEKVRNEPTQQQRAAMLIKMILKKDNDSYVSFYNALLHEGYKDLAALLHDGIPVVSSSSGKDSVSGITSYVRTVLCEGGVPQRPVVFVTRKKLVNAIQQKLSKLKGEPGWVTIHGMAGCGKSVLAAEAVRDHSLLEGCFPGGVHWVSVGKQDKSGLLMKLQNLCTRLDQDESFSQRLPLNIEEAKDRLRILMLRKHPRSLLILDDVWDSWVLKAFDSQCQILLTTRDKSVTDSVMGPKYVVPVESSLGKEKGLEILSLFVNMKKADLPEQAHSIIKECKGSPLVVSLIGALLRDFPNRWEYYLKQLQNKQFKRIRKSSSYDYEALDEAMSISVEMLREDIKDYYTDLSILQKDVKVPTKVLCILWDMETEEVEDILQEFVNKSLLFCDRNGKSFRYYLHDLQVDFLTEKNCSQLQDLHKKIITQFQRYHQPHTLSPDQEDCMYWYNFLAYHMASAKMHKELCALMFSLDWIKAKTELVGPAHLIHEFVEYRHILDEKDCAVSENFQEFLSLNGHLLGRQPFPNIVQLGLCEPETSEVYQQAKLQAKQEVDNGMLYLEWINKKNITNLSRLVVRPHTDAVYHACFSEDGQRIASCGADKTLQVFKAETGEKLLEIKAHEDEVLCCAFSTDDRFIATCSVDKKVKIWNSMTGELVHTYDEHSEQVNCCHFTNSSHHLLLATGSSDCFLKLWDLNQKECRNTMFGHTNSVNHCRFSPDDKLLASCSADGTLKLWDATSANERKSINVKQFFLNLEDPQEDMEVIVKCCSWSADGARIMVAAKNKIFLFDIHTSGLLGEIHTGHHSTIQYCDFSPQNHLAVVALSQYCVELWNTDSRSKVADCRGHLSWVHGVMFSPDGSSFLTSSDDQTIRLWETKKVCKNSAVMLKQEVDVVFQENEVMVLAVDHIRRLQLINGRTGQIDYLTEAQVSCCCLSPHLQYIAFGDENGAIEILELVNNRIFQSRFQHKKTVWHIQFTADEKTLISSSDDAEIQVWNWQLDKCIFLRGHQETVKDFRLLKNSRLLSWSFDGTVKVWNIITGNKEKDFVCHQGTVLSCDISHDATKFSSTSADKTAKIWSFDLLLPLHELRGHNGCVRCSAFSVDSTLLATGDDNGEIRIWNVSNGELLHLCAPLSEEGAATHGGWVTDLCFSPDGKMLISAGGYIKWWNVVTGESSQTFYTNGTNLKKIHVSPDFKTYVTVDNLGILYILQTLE

[4] = inhibitors of control Renilla luciferase reporter, dose response, counter-screen for Shn3 3'UTR targeting project, Clone20-Shn3RL cells, dual-Glo, cherry-pick, set 2 (AID 720724); assay type: functional, cell-based; conditions: Dual-Go Shn3RL
[5] = target: T2, Heat shock factor protein 1 (Mus musculus, UniProt P38532); assay: HSF1 potentiators in luciferase reporter cells, confirmation, cell-based, NIH3T3, luminescence, dose retest (AID 435004); assay type: functional;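 further: stress induced by proteasome inhibitor MG132 added 30 min after compound; luciferase reporter driven by HSF1 response element in NIH3T3 cells; actives raise luminescence as potentiators of the MG132 stress response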
T2 sequence (P38532 whole entry): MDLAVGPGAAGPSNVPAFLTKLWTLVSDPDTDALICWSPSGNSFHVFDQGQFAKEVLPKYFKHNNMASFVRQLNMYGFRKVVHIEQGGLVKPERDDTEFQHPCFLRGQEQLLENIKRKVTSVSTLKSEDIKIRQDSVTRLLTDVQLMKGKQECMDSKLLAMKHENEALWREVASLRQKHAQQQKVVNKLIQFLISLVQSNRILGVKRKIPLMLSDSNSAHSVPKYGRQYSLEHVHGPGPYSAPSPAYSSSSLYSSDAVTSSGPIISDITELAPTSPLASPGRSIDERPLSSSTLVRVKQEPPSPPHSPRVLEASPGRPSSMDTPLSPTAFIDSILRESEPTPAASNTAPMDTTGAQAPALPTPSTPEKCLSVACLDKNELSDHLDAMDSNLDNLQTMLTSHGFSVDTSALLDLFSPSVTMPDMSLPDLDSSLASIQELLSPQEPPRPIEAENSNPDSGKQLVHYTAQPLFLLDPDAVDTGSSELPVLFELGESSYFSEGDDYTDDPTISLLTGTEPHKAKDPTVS

[6] = target: T3, Short transient receptor potential channel 4 (Mus musculus, UniProt Q9QUQ5); assay: mouse TRPC4 channel activators, dose response, cell-based, HEK293 TRPC4/mu-opioid, Fluo-4 calcium (AID 434937); assay type: functional
T3 sequence (Q9QUQ5 whole entry): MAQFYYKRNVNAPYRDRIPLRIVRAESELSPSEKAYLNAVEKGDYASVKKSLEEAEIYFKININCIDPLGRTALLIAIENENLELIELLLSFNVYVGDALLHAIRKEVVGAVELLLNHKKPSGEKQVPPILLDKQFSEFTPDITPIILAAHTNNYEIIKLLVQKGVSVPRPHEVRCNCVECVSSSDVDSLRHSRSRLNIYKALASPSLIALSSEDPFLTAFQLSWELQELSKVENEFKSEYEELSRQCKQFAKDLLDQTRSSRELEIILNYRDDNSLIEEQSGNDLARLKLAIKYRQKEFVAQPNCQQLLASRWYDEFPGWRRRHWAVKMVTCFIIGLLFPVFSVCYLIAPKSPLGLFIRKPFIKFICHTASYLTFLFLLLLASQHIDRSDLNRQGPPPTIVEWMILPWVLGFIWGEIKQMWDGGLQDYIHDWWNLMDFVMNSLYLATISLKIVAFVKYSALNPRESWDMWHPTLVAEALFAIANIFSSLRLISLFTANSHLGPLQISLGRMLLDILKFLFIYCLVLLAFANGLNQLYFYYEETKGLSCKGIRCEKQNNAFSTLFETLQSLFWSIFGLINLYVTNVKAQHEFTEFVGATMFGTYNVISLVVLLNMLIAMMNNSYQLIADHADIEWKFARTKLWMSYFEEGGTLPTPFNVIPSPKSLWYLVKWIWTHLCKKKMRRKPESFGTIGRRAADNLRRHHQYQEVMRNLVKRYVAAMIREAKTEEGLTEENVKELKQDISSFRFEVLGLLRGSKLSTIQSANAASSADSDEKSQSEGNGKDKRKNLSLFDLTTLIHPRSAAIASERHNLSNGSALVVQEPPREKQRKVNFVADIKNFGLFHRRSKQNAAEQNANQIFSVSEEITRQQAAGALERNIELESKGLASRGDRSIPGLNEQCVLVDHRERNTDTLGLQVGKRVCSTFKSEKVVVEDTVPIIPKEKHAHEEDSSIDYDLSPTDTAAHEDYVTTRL

[7] = Shn3 3'UTR reporter inhibitors, dose response, cell-based, Clone20 osteoblasts, firefly luciferase, cherry-picked (AID 624132); assay type: functional;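 further: firefly luciferase luminescence from reporter carrying the Shn3 3'UTR in osteoblasts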
[8] = target: Heat shock protein HSP 90-alpha (Homo sapiens, UniProt P07900); assay type: functional, organism-based
[9] = target: 1-phosphatidylinositol 4,5-bisphosphate phosphodiesterase beta-3 (Homo sapiens, UniProt Q01970); assay: Fluorescence-based biochemical high throughput dose response assay to identify inhibitors of phospholipase C isozymes (PLC-B3).
[10] = target: 1-phosphatidylinositol 4,5-bisphosphate phosphodiesterase gamma-1 (Homo sapiens, UniProt P19174); assay: Counterscreen for inhibitors of phospholipase C isozymes (PLC-B3): Fluorescence-based biochemical high throughput dose response assay to identify inhibitors of phospholipase C isozymes (PLC-gamma1).
[11] = target: Prothrombin (Bos taurus, UniProt P00735); assay: thrombin inhibition, dose response, biochemical, fluorescence polarization, uHTS hits (AID 602369); assay type: functional
[12] = THP-1 cell cytotoxicity, dose response, cytotoxicity control for Vif-APOBEC3G degradation inhibitor project, THP-1 cells (AID 1117359); assay type: functional; conditions: Human immunodeficiency virus 1, THP-1
[13] = target: T4, Small ubiquitin-related modifier 1 (Homo sapiens, UniProt P63165); assay: inhibitors of SUMO1 partner interactions, dose response, biochemical, FRET (AID 624383); assay type: functional; conditions: read-out: IC50_Mean
[14] = target: DNA (cytosine-5)-methyltransferase 1 (Homo sapiens, UniProt P26358); assay: DNMT1 methyltransferase inhibitors, confirmation, biochemical, fluorescent molecular beacon (AID 602386); assay type: functional
[15] = target: T5, Carboxy-terminal domain RNA polymerase II polypeptide A small phosphatase 1 (Homo sapiens, UniProt Q9GZU7); assay: inhibitors of CTDSP1, concentration-response testing, biochemical assay, absorbance-based, actives from ultra-high-throughput screening (AID 540297); assay type: functional
T5 sequence (Q9GZU7 whole entry): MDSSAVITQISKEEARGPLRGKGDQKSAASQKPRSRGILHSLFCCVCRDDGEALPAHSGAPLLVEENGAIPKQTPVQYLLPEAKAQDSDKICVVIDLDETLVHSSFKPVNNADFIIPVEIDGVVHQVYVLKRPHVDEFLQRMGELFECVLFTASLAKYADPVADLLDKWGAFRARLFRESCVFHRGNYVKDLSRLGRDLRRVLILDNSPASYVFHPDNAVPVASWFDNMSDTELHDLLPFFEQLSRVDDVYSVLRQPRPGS

[16] = target: T6, Caspase-6 (Homo sapiens, UniProt P55212); assay: human caspase-6 inhibitors, dose response, biochemical, VEID-R110 fluorescence, cherry-pick (AID 720632)
T6 sequence (P55212 whole entry): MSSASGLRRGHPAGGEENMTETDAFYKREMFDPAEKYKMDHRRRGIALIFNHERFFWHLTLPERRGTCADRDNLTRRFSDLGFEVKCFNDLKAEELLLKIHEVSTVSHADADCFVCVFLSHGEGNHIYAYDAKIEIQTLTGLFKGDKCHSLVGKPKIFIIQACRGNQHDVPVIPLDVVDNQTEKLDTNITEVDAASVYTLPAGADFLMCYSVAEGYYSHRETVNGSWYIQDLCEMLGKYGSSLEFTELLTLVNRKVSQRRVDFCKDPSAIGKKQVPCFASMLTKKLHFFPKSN

[17] = target: Caspase-7 (Homo sapiens, UniProt P55210); assay: human caspase-7 inhibitors, dose response, selectivity assay for caspase-6 inhibitor project, biochemical, DEVD-R110 fluorescence, cherry-pick (AID 743295)
[18] = target: 26S proteasome non-ATPase regulatory subunit 14 (Homo sapiens, UniProt O00487); assay: inhibition of proteasome subunit RPN11 – biochemical, fluorescence polarization, uHTS hits, confirmation (AID 602368); assay type: functional
[19] = target: Caspase-8 (Homo sapiens, UniProt Q14790); assay: caspase-8 inhibition counter-screen, dose response, selectivity assay for caspase-6 inhibitor project, biochemical, Z-IETD-R110 fluorescence, cherry-picked samples (AID 743294)
[20] = target: T4, Small ubiquitin-related modifier 1; assay: inhibitors of SUMO1 peptide binding, dose response, biochemical, fluorescence polarization, uHTS hits (AID 624382); assay type: functional; conditions: read-out: IC50_Mean
[21] = target: 72 kDa type IV collagenase (Homo sapiens, UniProt P08253); assay: Dose Response validation of uHTS RPN11 inhibitor hits using a MMP-2 Fluorescence assay.; assay type: functional
[22] = HEK293 cell cytotoxicity, dose response, cytotoxicity control, cherry-picks, set 5 (AID 1053117); assay type: functional, cell-based
[23] = HepG2 cell cytotoxicity, dose response, cytotoxicity control, cherry-picked samples (AID 1159577); assay type: functional, cell-based
[24] = miR-122 activators in hepatoma reporter cells, dose response, cell-based, Huh7 psiCHECK-miR122, Renilla luciferase, cherry-picked (AID 651956); assay type: functional;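 further: huh7 hepatoma cells stably carrying a psiCHECK-2 miR-122 sensor plasmid; renilla luciferase signal reporting endogenous miR-122 activity after 48 h compound exposure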
[25] = P. falciparum Dd2 growth inhibitors, dose response, SYBR Green, cherry-picked samples (AID 1159567); assay type: functional, cell-based
[26] = BHK-21 cell cytotoxicity, cytotoxicity control for flavivirus guanylyltransferase probe project, secondary screen (AID 624078); assay type: functional
[27] = target: Potassium channel subfamily K member 9 (Homo sapiens, UniProt Q9NPC2); assay: TASK3 (KCNK9) channel inhibitors, thallium flux, SAR follow-up, selectivity assay for TASK1 inhibitor project, cell-based, FluxOR thallium flux, concentration-response (AID 652211); assay type: functional;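 further: potency is for inhibitors of the channel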
[28] = target: Potassium channel subfamily K member 3 (Homo sapiens, UniProt O14649); assay: TASK1 (KCNK3) potassium channel inhibitors, SAR follow-up, CHO cells, FluxOR thallium flux (AID 652212); assay type: functional
[29] = target: Potassium channel subfamily K member 3 (Rattus norvegicus, UniProt O54912); assay: SAR analysis for the identification of selective inhibitors of the two-pore domain potassium channel TASK1(KCNK3):Automated Electrophysiology.; assay type: functional
Sequence of Potassium channel subfamily K member 3 (Rattus norvegicus, UniProt O54912) (O54912 whole entry, the tested form may be a part): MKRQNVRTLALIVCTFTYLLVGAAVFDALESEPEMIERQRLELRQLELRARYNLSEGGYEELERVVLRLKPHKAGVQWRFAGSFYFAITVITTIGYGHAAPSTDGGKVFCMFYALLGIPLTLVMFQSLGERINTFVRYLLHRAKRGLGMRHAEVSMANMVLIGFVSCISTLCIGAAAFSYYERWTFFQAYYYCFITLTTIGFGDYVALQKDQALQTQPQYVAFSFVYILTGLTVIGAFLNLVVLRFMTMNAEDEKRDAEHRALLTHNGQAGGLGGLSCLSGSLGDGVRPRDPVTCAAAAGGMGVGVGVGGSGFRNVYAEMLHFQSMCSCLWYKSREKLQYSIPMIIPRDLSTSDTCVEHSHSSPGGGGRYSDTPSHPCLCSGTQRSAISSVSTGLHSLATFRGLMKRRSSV

T4 sequence (P63165 whole entry): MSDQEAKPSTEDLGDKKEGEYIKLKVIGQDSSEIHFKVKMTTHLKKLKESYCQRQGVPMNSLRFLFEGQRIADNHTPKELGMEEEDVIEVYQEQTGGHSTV
Sequence of Caspase-8 (Q14790 217-374 limits assumed): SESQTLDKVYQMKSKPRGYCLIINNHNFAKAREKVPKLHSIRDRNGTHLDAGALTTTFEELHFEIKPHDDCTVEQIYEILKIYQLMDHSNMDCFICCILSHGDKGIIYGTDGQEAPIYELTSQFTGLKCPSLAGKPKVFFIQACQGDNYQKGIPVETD
Sequence of Caspase-8 (Q14790 385-479 limits assumed): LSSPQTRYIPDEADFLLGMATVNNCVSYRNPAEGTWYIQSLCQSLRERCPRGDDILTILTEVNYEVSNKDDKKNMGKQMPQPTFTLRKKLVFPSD
Sequence of 1-phosphatidylinositol 4,5-bisphosphate phosphodiesterase beta-3 (Q01970 whole entry): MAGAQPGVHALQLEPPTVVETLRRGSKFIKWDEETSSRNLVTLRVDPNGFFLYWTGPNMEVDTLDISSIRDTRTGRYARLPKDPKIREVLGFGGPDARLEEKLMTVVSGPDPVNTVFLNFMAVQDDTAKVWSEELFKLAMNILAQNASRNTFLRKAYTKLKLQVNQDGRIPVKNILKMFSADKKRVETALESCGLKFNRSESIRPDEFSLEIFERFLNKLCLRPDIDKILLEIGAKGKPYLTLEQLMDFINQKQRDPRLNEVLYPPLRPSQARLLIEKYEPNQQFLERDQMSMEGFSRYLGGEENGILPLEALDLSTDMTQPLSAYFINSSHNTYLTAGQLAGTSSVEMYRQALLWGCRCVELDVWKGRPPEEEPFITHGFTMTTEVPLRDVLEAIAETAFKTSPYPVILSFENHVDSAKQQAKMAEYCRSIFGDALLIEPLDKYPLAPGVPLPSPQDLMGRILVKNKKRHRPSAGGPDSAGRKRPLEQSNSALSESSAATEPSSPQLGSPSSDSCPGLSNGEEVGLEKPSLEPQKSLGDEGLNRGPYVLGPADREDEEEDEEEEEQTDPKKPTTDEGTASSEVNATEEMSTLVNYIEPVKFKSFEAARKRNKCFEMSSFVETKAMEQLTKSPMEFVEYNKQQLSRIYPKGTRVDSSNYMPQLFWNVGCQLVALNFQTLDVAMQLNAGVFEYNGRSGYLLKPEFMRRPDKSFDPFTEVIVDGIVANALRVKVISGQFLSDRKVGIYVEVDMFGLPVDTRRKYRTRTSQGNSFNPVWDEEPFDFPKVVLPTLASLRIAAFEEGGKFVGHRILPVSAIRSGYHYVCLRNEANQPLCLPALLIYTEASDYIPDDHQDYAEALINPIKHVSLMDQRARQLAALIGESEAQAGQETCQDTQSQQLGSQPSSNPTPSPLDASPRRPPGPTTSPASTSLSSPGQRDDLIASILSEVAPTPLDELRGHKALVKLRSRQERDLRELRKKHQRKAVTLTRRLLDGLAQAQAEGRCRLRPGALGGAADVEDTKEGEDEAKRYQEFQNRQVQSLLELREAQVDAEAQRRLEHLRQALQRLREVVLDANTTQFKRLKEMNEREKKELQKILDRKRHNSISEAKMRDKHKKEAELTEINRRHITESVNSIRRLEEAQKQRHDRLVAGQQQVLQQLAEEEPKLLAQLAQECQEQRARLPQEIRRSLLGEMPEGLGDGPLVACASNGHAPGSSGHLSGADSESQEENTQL
Sequence of Potassium channel subfamily K member 9 (Q9NPC2 whole entry): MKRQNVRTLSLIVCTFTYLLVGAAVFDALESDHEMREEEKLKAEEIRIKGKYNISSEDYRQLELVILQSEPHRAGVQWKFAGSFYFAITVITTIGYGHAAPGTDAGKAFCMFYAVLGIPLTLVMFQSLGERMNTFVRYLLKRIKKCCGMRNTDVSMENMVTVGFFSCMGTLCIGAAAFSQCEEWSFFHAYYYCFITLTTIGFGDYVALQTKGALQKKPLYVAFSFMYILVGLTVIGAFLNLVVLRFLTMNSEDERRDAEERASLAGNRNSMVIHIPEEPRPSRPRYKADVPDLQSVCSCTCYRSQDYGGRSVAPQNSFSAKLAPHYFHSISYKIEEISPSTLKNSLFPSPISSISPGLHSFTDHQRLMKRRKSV
Sequence of 26S proteasome non-ATPase regulatory subunit 14 (O00487 whole entry): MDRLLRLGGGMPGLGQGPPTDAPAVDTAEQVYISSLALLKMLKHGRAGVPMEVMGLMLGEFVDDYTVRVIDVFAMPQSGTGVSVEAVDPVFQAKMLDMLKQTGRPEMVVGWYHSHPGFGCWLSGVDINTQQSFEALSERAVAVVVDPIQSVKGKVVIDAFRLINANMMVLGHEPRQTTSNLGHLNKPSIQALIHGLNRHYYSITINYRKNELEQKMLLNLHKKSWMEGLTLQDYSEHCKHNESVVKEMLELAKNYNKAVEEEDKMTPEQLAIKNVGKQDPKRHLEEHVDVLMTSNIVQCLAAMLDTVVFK
Sequence of 72 kDa type IV collagenase (P08253 whole entry): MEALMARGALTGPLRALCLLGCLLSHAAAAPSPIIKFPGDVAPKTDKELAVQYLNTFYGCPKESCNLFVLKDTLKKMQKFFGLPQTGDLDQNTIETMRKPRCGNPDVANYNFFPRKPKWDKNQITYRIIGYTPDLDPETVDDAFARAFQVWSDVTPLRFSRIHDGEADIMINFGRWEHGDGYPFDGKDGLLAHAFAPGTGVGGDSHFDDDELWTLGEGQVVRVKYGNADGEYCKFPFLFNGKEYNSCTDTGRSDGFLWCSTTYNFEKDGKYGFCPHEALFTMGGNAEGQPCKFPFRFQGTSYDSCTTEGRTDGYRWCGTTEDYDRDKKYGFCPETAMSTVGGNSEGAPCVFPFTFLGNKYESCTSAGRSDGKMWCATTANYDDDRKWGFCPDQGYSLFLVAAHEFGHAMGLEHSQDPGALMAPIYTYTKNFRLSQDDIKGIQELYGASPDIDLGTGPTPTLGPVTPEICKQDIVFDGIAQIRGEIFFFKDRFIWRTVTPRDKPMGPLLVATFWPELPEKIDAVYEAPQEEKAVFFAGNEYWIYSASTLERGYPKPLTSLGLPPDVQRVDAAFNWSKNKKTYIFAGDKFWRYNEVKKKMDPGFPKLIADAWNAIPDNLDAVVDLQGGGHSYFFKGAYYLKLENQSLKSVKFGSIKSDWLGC
Sequence of Caspase-7 (P55210 24-198 limits assumed): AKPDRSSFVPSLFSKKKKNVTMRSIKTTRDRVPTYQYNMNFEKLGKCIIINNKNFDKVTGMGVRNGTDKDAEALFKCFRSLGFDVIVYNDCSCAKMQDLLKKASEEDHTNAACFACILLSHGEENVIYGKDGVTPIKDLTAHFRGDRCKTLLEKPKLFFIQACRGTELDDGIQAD
Sequence of Caspase-7 (P55210 207-303 limits assumed): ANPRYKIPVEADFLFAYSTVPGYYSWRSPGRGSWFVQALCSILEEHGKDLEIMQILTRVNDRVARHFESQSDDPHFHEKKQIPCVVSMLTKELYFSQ
Sequence of Tyrosyl-DNA phosphodiesterase 2 (O95551 whole entry): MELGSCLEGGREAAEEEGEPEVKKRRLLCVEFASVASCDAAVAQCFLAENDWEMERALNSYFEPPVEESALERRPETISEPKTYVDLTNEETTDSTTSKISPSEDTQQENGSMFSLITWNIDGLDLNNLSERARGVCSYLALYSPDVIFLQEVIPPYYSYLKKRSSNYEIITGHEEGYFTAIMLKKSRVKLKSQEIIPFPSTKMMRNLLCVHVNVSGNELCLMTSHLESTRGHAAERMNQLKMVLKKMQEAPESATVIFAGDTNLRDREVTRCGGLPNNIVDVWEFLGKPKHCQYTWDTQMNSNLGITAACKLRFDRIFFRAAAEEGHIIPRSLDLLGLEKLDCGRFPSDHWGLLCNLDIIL
Sequence of Potassium channel subfamily K member 3 (Homo sapiens, UniProt O14649) (O14649 whole entry, the tested form may be a part): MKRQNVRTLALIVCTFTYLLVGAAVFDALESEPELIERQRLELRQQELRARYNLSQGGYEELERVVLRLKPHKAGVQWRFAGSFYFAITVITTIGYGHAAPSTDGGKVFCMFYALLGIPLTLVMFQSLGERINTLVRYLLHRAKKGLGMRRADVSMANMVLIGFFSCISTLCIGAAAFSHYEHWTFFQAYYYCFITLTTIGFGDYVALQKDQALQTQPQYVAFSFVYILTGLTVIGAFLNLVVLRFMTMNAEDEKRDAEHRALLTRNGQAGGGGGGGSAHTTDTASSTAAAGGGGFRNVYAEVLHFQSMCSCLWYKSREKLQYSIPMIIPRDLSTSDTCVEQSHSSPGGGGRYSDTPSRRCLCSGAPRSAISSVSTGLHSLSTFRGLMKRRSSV

O=C1C(O)=C(O)C(=O)c2ccccc21
IC50 [1]: > 100 µM (active) | IC50 [2]: 19.3 µM (inactive) | IC50 [3]: 12.5 µM (active)

O=C1S/C(=C\c2ccc(N3CCOCC3)o2)C(=O)N1Cc1c(F)cccc1Cl
AC50 [4]: 42.1 µM (active) | EC50 [5]: > 260 µM (inactive) | EC50 [6]: 6.68 µM (active) | AC50 [7]: 6.72 µM (active) | AC50 [8]: 18.5 µM (active)

COc1ccc(NC(=O)c2sc3cc(C(F)(F)F)cnc3c2-c2cccs2)cc1
IC50 [9]: > 122 µM (inactive) | IC50 [10]: > 122 µM (inactive)

Cc1ccc(NC(=O)CN(C)C(=O)c2cccc(-n3cccc3)c2)cc1
IC50 [11]: 86.9 µM (active) | CC50 [12]: > 40 µM (active) | IC50 [13]: 5.95 µM (active) | IC50 [14]: 9.26 µM (active) | IC50 [15]: 5.68 µM (active) | AC50 [16]: 1.5 µM (active) | AC50 [17]: > 70 µM (inactive) | IC50 [18]: 11 µM (active) | AC50 [19]: > 70 µM (inactive) | IC50 [20]: > 66.6 µM (inactive) | IC50 [21]: 18.4 µM (active)

CO[C@@H]1CN(C)C(=O)c2cc(NC(=O)Nc3ccc(Cl)c(Cl)c3)ccc2OC[C@H](C)NC[C@H]1C
AC50 [22]: > 52 µM (inactive) | AC50 [23]: 7.83 µM (active) | AC50 [24]: 24.8 µM (active) | AC50 [25]: 6.4 µM (active)

O=[N+]([O-])c1cccc(S(=O)(=O)Nc2cc(Sc3nc4ccccc4s3)c(O)c3ccccc23)c1
CC50 [26]: 11.5 µM (active)

COc1ccccc1NC(=O)c1cccc(NC(=O)c2ccccc2OC)c1
IC50 [27]: 3.02 µM (active) | IC50 [28]: 0.008 µM (active) | IC50 [29]: 0.03 µM (active)
